Experiment [1] deals with sGC α1/β1 heterodimer (Homo sapiens (Human), UniProt Q02108+Q02153). Kind of experiment: Cell-based sGC functional assay (cyclic GMP assay for sGC activator: CASA assay). The conditions noted are these: CHO-K1/sGC cells; for Emax: CHO-K1, activity expressed as percentage of compound A (standard), read-out: % Activation; for EC50: inflection point, 4P fit, read-out: IP. The method in brief: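 CHO-K1 cells stably expressing sGC α1/β1 were pre-incubated with or without 1 μM DETA-NO (30 min, 25 °C), then exposed to compounds for 1 hr at 37 °C with 0.5 mM IBMX. Intracellular cGMP was read by HTRF and expressed as a percentage of a reference heme-dependent activator's maximum.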

For experiment [2], the target named is human recombinant sGC enzyme (Homo sapiens (Human), UniProt Q02108+Q02153). In words: Size Exclusion Chromatography (SEC) competition binding assay using [3H] Ex-77B as the radioligand. The note with it: [3H] Ex-77B radioligand, 24 hours at 37° C. The essentials: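 Recombinant human sGC binding measured by competition against tritiated Ex-77B radioligand, with non-specific binding defined by 1 μM unlabeled Ex-77B.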
(SEC sorts molecules by how far they enter the pores of the column.)

One may read the Ki as the equilibrium dissociation constant of an inhibitor or competing ligand from its target.

Take `CC(C)(Cc1csc([C@]2(C)C(=O)Nc3nc(-c4nn(CCCC(F)(F)F)c5ncccc45)nc(N)c32)n1)C(=O)O` [Example 87B, (S)-3-(2-{4-amino-5-methyl-6-oxo-2-[1-(4,4,4-trifluorobutyl)-1H-pyrazolo[3,4-b]pyridin-3-yl]-6,7-dihydro-5H-pyrrolo[2,3-d]pyrimidin-5-yl}-1,3-thiazol-4-yl)-2,2-dimethylpropanoic acid]: in experiment [1], the Emax was found to be 97% and the EC50 was found to be 547 nM. Further, in experiment [2], the Ki turned out to be 0.785 nM.
Consider `C[C@@]1(c2ccc(CCC(=O)O)cc2)C(=O)Nc2nc(-c3nn(CCCC(F)(F)F)c4nc(Cl)ccc34)nc(N)c21` [Example 19B, (S)-3-(4-{4-amino-2-[6-chloro-1-(4,4,4-trifluorobutyl)-1H-pyrazolo[3,4-b]pyridin-3-yl]-5-methyl-6-oxo-6,7-dihydro-5H-pyrrolo[2,3-d]pyrimidin-5-yl}phenyl)propanoic acid], for which, in experiment [1], the Emax came out at 89% and the EC50 was determined as 1040 nM. Moreover, in experiment [2], the Ki turned out to be 0.286 nM.
Regarding `Cc1nc([C@]2(C)C(=O)Nc3nc(-c4nn(CCC(F)(F)C(F)(F)F)c5ncccc45)nc(N)c32)sc1CC(=O)O` [Example 83B, (S)-(2-{4-amino-5-methyl-6-oxo-2-[1-(3,3,4,4,4-pentafluorobutyl)-1H-pyrazolo[3,4-b]pyridin-3-yl]-6,7-dihydro-5H-pyrrolo[2,3-d]pyrimidin-5-yl}-4-methyl-1,3-thiazol-5-yl)acetic acid], in experiment [1], the Emax is 80% and the EC50 was determined as 1420 nM. The Ki in experiment [2] turned out to be 1.74 nM.
For `CC(C)(Cc1ccc(C2(C)C(=O)Nc3nc(-c4nn(CCCC(F)(F)F)c5ncccc45)nc(N)c32)cc1)C(=O)O` (stereo not drawn) [Example 16B, 3-(4-{4-amino-5-methyl-6-oxo-2-[1-(4,4,4-trifluorobutyl)-1H-pyrazolo[3,4-b]pyridin-3-yl]-6,7-dihydro-5H-pyrrolo[2,3-d]pyrimidin-5-yl}phenyl)-2,2-dimethylpropanoic acid], in experiment [1], the Emax came out at 96% and the EC50 was found to be 1470 nM. The Ki in experiment [2] stood at 1.14 nM.
Turning to `CC(C)(C)CCn1nc(-c2nc(N)c3c(n2)NC(=O)[C@@]3(C)c2ccc(CCC(=O)O)cc2)c2cccnc21` [Example 210B, (S)-3-(4-{4-amino-2-[1-(3,3-dimethylbutyl)-1H-pyrazolo[3,4-b]pyridin-3-yl]-5-methyl-6-oxo-6,7-dihydro-5H-pyrrolo[2,3-d]pyrimidin-5-yl}phenyl)propanoic acid], in experiment [1], the Emax was determined as 103% and the EC50 is 2020 nM. In addition, in experiment [2], the inhibition constant (Ki) amounted to 0.341 nM.
Take `CC1(c2ccc(CC(=O)O)cc2)C(=O)Nc2nc(-c3nn(CCC(F)(F)C(F)(F)F)c4ncccc34)nc(N)c21` (stereo not drawn) [Example 118A, 2-(4-{4-amino-5-methyl-6-oxo-2-[1-(3,3,4,4,4-pentafluorobutyl)-1H-pyrazolo[3,4-b]pyridin-3-yl]-6,7-dihydro-5H-pyrrolo[2,3-d]pyrimidin-5-yl}phenyl)acetic acid]: in experiment [1], the Emax was 86% and the EC50 amounted to 3510 nM. In addition, in experiment [2], the Ki amounted to 0.166 nM.
On to `Cc1cccc(Cn2nc(-c3nc(N)c4c(n3)NC(=O)C4(C)c3nc(CC(C)(C)C(=O)O)co3)c3ccc(Cl)cc32)c1F` (stereo not drawn) [Example 187A, 3-(2-{4-amino-2-[6-chloro-1-(2-fluoro-3-methyl-benzyl)-1H-indazol-3-yl]-5-methyl-6-oxo-6,7-dihydro-5H-pyrrolo[2,3-d]pyrimidin-5-yl}-1,3-oxazol-4-yl)-2,2-dimethyl-propanoic acid], for which, in experiment [1], the Emax came to 97.1% and the EC50 was determined as 244 nM. The Ki in experiment [2] is 0.029 nM.
Regarding `CC1(c2cn(CC(=O)O)nn2)C(=O)Nc2nc(-c3nn(CCC(F)(F)C(F)(F)F)c4cc(Cl)ccc34)nc(N)c21` (stereo not drawn) [Example 28B, (4-{4-amino-2-[6-chloro-1-(3,3,4,4,4-pentafluorobutyl)-1H-indazol-3-yl]-5-methyl-6-oxo-6,7-dihydro-5H-pyrrolo[2,3-d]pyrimidin-5-yl}-1H-1,2,3-triazol-1-yl)acetic acid], in experiment [1], the Emax was 105% and the EC50 amounted to 2170 nM. The Ki in experiment [2] is 0.536 nM.
On to `CC(C)(C)CCn1nc(-c2nc(N)c3c(n2)NC(=O)C3(C)c2nc(CC(C)(C)C(=O)O)co2)c2ccc(Cl)cc21` (stereo not drawn) [Example 208A, 3-(2-{4-amino-2-[6-chloro-1-(3,3-dimethylbutyl)-1H-indazol-3-yl]-5-methyl-6-oxo-6,7-dihydro-5H-pyrrolo[2,3-d]pyrimidin-5-yl}-1,3-oxazol-4-yl)-2,2-dimethyl-propanoic acid], for which, in experiment [1], the Emax was 101% and the EC50 amounted to 453 nM. Also, the Ki in experiment [2] is 0.253 nM.
Turning to `CC(C)(Cc1csc([C@]2(C)C(=O)Nc3nc(-c4nn(Cc5ccccc5F)c5cc(Cl)ccc45)nc(N)c32)n1)c1nn[nH]n1` [Example 238A, (S)-4-amino-2-[6-chloro-1-(2-fluorobenzyl)-1H-indazol-3-yl]-5-methyl-5-{4-[2-methyl-2-(2H-tetrazol-5-yl)propyl]-1,3-thiazol-2-yl}-5,7-dihydro-6H-pyrrolo[2,3-d] pyrimidin-6-one], in experiment [1], the Emax turned out to be 99.5% and the EC50 came to 609 nM. The Ki in experiment [2] stood at 0.095 nM.
The like results for `CC(C)(CCc1coc(C2(C)C(=O)Nc3nc(-c4nn(Cc5cccc(F)c5)c5cc(Cl)ccc45)nc(N)c32)n1)C(=O)O` (stereo not drawn) [Example 177B, 4-(2-{4-amino-2-[6-chloro-1-(3-fluorobenzyl)-1H-indazol-3-yl]-5-methyl-6-oxo-6,7-dihydro-5H-pyrrolo[2,3-d]pyrimidin-5-yl}-1,3-oxazol-4-yl)-2,2-dimethyl-butanoic acid] were, in that order, 126%, 351 nM and 0.118 nM.
The like results for `CC1(c2ccc(CCC(=O)O)cn2)C(=O)Nc2nc(-c3nn(Cc4ccccc4F)c4cc(Cl)ccc34)nc(N)c21` (stereo not drawn) [Example 129A, 3-(6-{4-amino-2-[6-chloro-1-(2-fluorobenzyl)-1H-indazol-3-yl]-5-methyl-6-oxo-6,7-dihydro-5H-pyrrolo[2,3-d]pyrimidin-5-yl}pyridin-3-yl)propanoic acid] were, in that order, 98.5%, 51 nM and 0.117 nM.
In the case of `CC1(c2nc(-c3cccc(C(=O)O)c3)cs2)C(=O)Nc2nc(-c3nn(CCC(F)(F)C(F)(F)F)c4cc(Cl)ccc34)nc(N)c21` (stereo not drawn) [Example 93A, 3-(2-{4-amino-2-[6-chloro-1-(3,3,4,4,4-pentafluorobutyl)-1H-indazol-3-yl]-5-methyl-6-oxo-6,7-dihydro-5H-pyrrolo[2,3-d]pyrimidin-5-yl}-1,3-thiazol-4-yl)benzoic acid], in experiment [1], the Emax was 63% and the EC50 is 575 nM. For the same compound, in experiment [2], the Ki came to 0.602 nM.
Regarding `CC(C)(CCc1coc(C2(C)C(=O)Nc3nc(-c4nn(Cc5ccccc5F)c5ncccc45)nc(N)c32)n1)C(=O)O` (stereo not drawn) [Example 206B, 4-(2-{4-amino-2-[1-(2-fluorobenzyl)-1H-pyrazolo[3,4-b]pyridin-3-yl]-5-methyl-6-oxo-6,7-dihydro-5H-pyrrolo[2,3-d]pyrimidin-5-yl}-1,3-oxazol-4-yl)-2,2-dimethyl-butanoic acid], in experiment [1], the Emax came out at 113% and the EC50 came out at 549 nM. In experiment [2], the Ki was found to be 0.798 nM.
For the compound `Cc1ccc2c(-c3nc(N)c4c(n3)NC(=O)[C@@]4(C)c3ccc(CCC(=O)O)cc3)nn(Cc3ccc(C)c(F)c3F)c2n1` [Example 25B, (S)-3-(4-{4-amino-2-[1-(2,3-difluoro-4-methylbenzyl)-6-methyl-1H-pyrazolo[3,4-b]pyridin-3-yl]-5-methyl-6-oxo-6,7-dihydro-5H-pyrrolo[2,3-d]pyrimidin-5-yl}phenyl)propanoic acid], in experiment [1], the Emax was 147% and the EC50 turned out to be 201 nM. The Ki in experiment [2] amounted to 0.262 nM.
For the compound `Cc1ccnc(Cn2nc(-c3nc(N)c4c(n3)NC(=O)[C@@]4(C)c3nc(CC(C)(C)C(=O)O)cs3)c3ccc(Cl)cc32)c1F` [Example 216A, (S)-3-(2-{4-amino-2-[6-chloro-1-((3-fluoro-4-methyl-pyridin-2-yl)methyl)-1H-indazol-3-yl]-5-methyl-6-oxo-6,7-dihydro-5H-pyrrolo[2,3-d]pyrimidin-5-yl} 1,3-thiazol-4-yl)-2,2-dimethyl-propanoic acid], in experiment [1], the Emax worked out at 132% and the EC50 is 678 nM. The Ki in experiment [2] was found to be 0.11 nM.
Turning to `CC1(c2ccc(CCP(=O)(O)O)cc2)C(=O)Nc2nc(-c3nn(Cc4ccccc4F)c4cc(Cl)ccc34)nc(N)c21` (stereo not drawn) [Example 257A, [2-(4-{4-Amino-2-[6-chloro-1-(2-fluorobenzyl)-1H-indazol-3-yl]-5-methyl-6-oxo-6,7-dihydro-5H-pyrrolo[2,3-d]pyrimidin-5-yl}phenyl)ethyl]phosphonic acid], in experiment [1], the Emax is 84.7% and the EC50 turned out to be 106 nM. Moreover, in experiment [2], the Ki stood at 0.105 nM.
As to `CC(C)(Cc1csc(C2(C)C(=O)Nc3nc(-c4nn(CCC(F)(F)F)c5ncc(F)cc45)nc(N)c32)n1)C(=O)O` (stereo not drawn) [Example 85A, 3-(2-{4-amino-2-[5-fluoro-1-(3,3,3-trifluoropropyl)-1H-pyrazolo[3,4-b]pyridin-3-yl]-5-methyl-6-oxo-6,7-dihydro-5H-pyrrolo[2,3-d]pyrimidin-5-yl}-1,3-thiazol-4-yl)-2,2-dimethylpropanoic acid], in experiment [1], the Emax came out at 130% and the EC50 stood at 700 nM. The Ki in experiment [2] was determined as 1.5 nM.

The values above are taken from patent publication US10030027B2, “Soluble guanylate cyclase stimulators” (MERCK SHARP & DOHME CORP., priority 2015, dated 2018).
